Assay results reported in patent US20220175771A1, “CANCER TREATMENT MODALITIES” (priority 2017, published 2022).

What was measured:
Oral bioavailability = details: in vivo
[1] = tested on: SMARCA2/SMARCA4 dual loss NSCLC cell line xenografts; test: NSCLC xenograft model in vivo; details: ~250 mg/kg body weight

For `CCN(c1cc(-c2ccc(CN3CCOCC3)cc2)cc(C(=O)NCc2c(C)cc(C)[nH]c2=O)c1C)C1CCOCC1` [Compound 44, tazemetostat], the oral bioavailability (Oral bioavailability) was “orally bioavailable”, the tumor growth inhibition ([1]; dual loss xenografts compared with SMARCA4 single loss xenografts) was “more prominent” and the tumor regression ([1]; in two of the four SMARCA2/SMARCA4 dual loss cell lines) was “tumor regression was observed”.
